Tests used:
[1] = tested on: TNBS-induced Colits in the rat; assay: TNBS-induced colitis in the rat, intrarectal administration; assay type: in vivo; details: for max Colon width: lowest dose that impacts the parameter to a relevant extent (inhibition of the TNBS-induced increase): TNBS 30 mg/kg rectally, compound intrarectal twice daily days -1 to +2, sacrificed day 2; for Thymus weight: lowest dose that impacts the parameter to a relevant extent (amplification of the TNBS-induced decrease) / Weight of adrenal glands: lowest dose that impacts the parameter to a relevant extent (inhibition of the TNBS-induced increase): TNBS colitis, intrarectal twice daily, side effect parameter
Procedure: As an animal model of Inflammatory Bowel Disease, the TNBS-induced Colits in the rat had been used.
48 h fasted rats (220-250 g b.w.) received rectally 0,9 ml of a solution consisting of 30% ethanol, 30 mg/kg TNBS (Trinitrobenzoesulfonic acid) in an oral distance of 8-9 cm from the anus. Compound administration days −1 to +2. Animals were sacrified on day 2. For intrarectal administration the compounds were solved in 1% ethanol, 10% Propyleneglycol and 20% Cyclodextrin. The used range of concentrations was identical for all compounds. Intrarectal administration schedule: twice daily. Compounds used: Ciclesonide and for comparison, Budesonide and Dexamethasone.
As parameters for the estimation of the pharmacological effects of the compounds, max. colon width had been used. As for the estimation of potential side effects, the weights of thymus and adrenal glands have been registrated.
The efficacy of a treatment was calculated on the reference of controls that received either no TNBS or TNBS rectally, establishing the range of 100 to 0% inhibition, respectively, in the drug screening.

[2] = human; cited from earlier work

| SMILES | max Colon width: lowest dose that impacts the parameter to a relevant extent (inhibition of the TNBS-induced increase) [1] | Thymus weight: lowest dose that impacts the parameter to a relevant extent (amplification of the TNBS-induced decrease) ([1]; highest assessed dose 6.9) | Weight of adrenal glands: lowest dose that impacts the parameter to a relevant extent (inhibition of the TNBS-induced increase) ([1]; highest assessed dose 6.9) | Weight of adrenal glands: lowest dose that impacts the parameter to a relevant extent (inhibition of the TNBS-induced increase) ([1]; highest assessed dose 6.9, listed as budenoside) | Thymus weight: lowest dose that impacts the parameter to a relevant extent (amplification of the TNBS-induced decrease) ([1]; highest assessed dose 6.9, listed as ciclesonide) | Oral bioavailability [2] |
| --- | --- | --- | --- | --- | --- | --- |
| CCCC1O[C@@H]2C[C@H]3[C@@H]4CCC5=CC(=O)C=C[C@]5(C)[C@H]4[C@@H](O)C[C@]3(C)[C@]2(C(=O)CO)O1 (stereo partly shown) [Budesonide] | 2.3-6.9 μmol/animal | 2.3 μmol/animal | n.e. @ 6.9 μmol/animal | does not reverse | – | – |
| CC(C)C(=O)OCC(=O)[C@@]12O[C@H](C3CCCCC3)O[C@@H]1C[C@H]1[C@@H]3CCC4=CC(=O)C=C[C@]4(C)[C@H]3[C@@H](O)C[C@@]12C [Ciclesonide, [11β,16α(R)]-16,17-[(cyclohexylmethylene)bis(oxy)]-11-hydroxy-21-(2-methyl-1-oxopropoxy)pregna-1,4-diene-3,20-dione] | 2.3 μmol/animal | n.e. @ 6.9 μmol/animal | 2.3 μmol/animal | – | > 6.9 μmol/animal | below 1% |
| C[C@@H]1C[C@H]2[C@@H]3CCC4=CC(=O)C=C[C@]4(C)[C@@]3(F)[C@@H](O)C[C@]2(C)[C@@]1(O)C(=O)CO [Dexamethasone] | 0.69 μmol/animal | – | – | – | – | – |

— patent US20060211668A1, “Use of ciclesonide for the treatment of inflammatory bowel diseases” (ALTANA PHARMA AG, priority 2003, published 2006)
